Measurements reported in US20250387410A1, “TREATMENT OF ANTI-VEGF REFRACTORY OPHTHALMIC RETINAL EYE CONDITIONS” (Eye Co Pty Ltd., priority 2022, published 2025).
Entries after “also recorded” stand apart in the source; their conditions may differ.

Experiments:
Type in all cases: cell-based, human
[1] = system: Ccl2, Il-6, Il-8 expression in MIO-M1 cells; assay: TNF-α stimulation of MIO-M1 cells, cytokine gene expression by QRT-PCR; settings: 1 μg/μl steroid, 1 ng/μl TNF-α, 12 h, versus TNF alone
Excerpt: (§1) The immortalised retinal cells used were as follows: MIO-M1 cells (Muller cell-derived; Müller 1 Moorefields, Institute of Ophthalmology, Dr A. Limb, Institute of Ophthalmology, University College, UK); ARPE19 (RPE-derived; ATCC CRL-2302, American Tissue Culture Collection, VA, USA); and 661W cells (photoreceptor-like derived; kindly gifted by Dr Muayyad R. Al-Ubaidi, Department of Cell Biology, University of Oklahoma Health Sciences Centre, Oklahoma City, OK, USA). Cells were authenticated and validated from Cell Bank Australia.
(§2) IL-1β and TNF-α were administered to MIO-M1 cells to initiate an inflammatory response in order to test the anti-inflammatory properties of the selected corticosteroids. MIO-M1 cells were grown to a cell density of 50,000 cells per well in a 24 well plate using growth media and foetal bovine serum as described (Section 2.1.1). MIO-M1 cells were challenged with either 1 ng/μl of IL-1β or TNF-α (R&D Systems, MN, USA). Experimental wells were treated with either 1 μg/μl FA, TA or Dexamethasone. […]
(§3) Following purification of RNA, cDNA was synthesized using the Bioline Tetro kit (Bioline, Australia) as per the manufacturer's instructions. Quantitative Real Time Polymerase Chain Reaction (QRT-PCR) was undertaken to profile gene expression changes in animal and cell culture samples. […] Data was analysed using the QuantStudio 12K Flex Software (Applied Biosystems, USA).

[2] = system: Ccl2, Il-6, Il-8 expression in MIO-M1 cells; assay: IL-1β stimulation of MIO-M1 cells, cytokine gene expression by QRT-PCR; settings: 1 μg/μl steroid, 1 ng/μl IL-1β, 12 h, versus IL-1β alone
Excerpt: as §1, §2, §3

MIO-M1 cells = assay: MTT assay, cell viability of MIO-M1 cells
Excerpt: as §1
The immortalised retinal cell lines MIO-M1, 661W and ARPE19 were used to undertake the MTT assay to assess cell metabolic activity, based on the cell's availability of NAPDH. Treatments included exposure to one of FA (10-0.01 μg/μl, provided by Professor Ben Boyd, Monash University, Australia), TA (10-0.01 μg/p, Honeywell, USA) and Dexamethasone (10-0.0001 μg/μl, Sigma-Aldrich, MO, USA). All corticosteroids used in vitro were dissolved in 20% dimethyl sulfoxide (DMSO) (Sigma-Aldrich, MO, USA) and ultrapure endotoxin 0.1M PBS (Thermo Fisher Scientific, MA, USA). At the 12-hour time point following addition of the corticosteroid, 10p of MTT reagent (Roche, Switzerland) was added to each well. To protect against light, plates were wrapped in foil and stored in the dark at 37° C. for 4 hours at 5.0% CO2. Cells were monitored using a bright field Zeiss Axiovert 200 inverted microscope (Carl Zeiss Meditec, Dublin, CA. USA) for formation of insoluble purple formazan precipitate crystals in viable cells. Subsequently 100p of MTT solubilisation solution was added and once again incubated in darkness at 37° C., 5.0% CO2 for 24 hours. Quantification of the MTT assay was performed by measuring the absorbance at 570 nm using Tecan Infinite® 200 PRO (Tecan, Mannedorf, Switzerland).

CC(=O)OCC(=O)[C@@]1(O)CC[C@H]2[C@@H]3CCC4=CC(=O)CC[C@]4(C)[C@@]3(F)[C@@H](O)C[C@@]21C [FA, 9-α-Fluoro-11 β. 17 α, 21-trihydroxy-4-pregnene-3, 20 dione acetate]
Ccl2, Il-6, and Il-8 expression after TNF stimulation [1]: significantly reduced; also recorded: drastically reduced; also recorded: significantly inhibited | Ccl2, Il-6, and Il-8 expression after IL-1β stimulation [2]: drastically reduced; also recorded: suppressed to near baseline levels | viability of MIO-M1 cells at 1 μg/μl (MIO-M1 cells; 1 μg/μl): does not significantly alter cell viability | viability of MIO-M1 cells at the highest concentration (MIO-M1 cells; 10 ug/uL, compared to DMSO-only group): slight reduction | viability of MIO-M1 cells (MTT assay) (MIO-M1 cells; 10-0.01 μg/μl, 12 h, compared to DMSO-only group): do not induce toxicity; also recorded: no significant effect
